Results taken from patent US6831080B2, “Cinnamide derivatives as KCNQ potassium channel modulators” (Bristol-Myers Squibb Company, priority 2001, dated 2004).

Assays:
[1] = test system: streptozoticin-induced tactile allodynia, Sprague Dawley rats; assay: Diabetic model of neuropathic pain (streptozoticin and von Frey test); format: in vivo, rat; conditions: 10 mg/kg, i.v.; von Frey thresholds over 90 min; STZ diabetic model
Experimental: To test agents for activity against systemic polyneuropathy nerve injury-induced tactile allodynia, animals were treated with streptozoticin (STZ) to create a diabetic condition by selective cytotoxic action upon pancreatic β-islet cells that produce insulin following the method of Courteix, et al. (Courteix C., et al., (1993) Pain, April;53(1):81-8). In brief, male Sprague Dawley rats (wt. 200-275 g) received an injection of STZ (75 mg/kg, i.p.) and diabetes was confirmed three weeks after STZ injection by measurement of tail vein blood glucose levels. After 3-4 weeks, paw withdrawal to light touch was assessed as described by Chaplan et al. (Chaplan S. R., et al., (1994) J Neurosci Methods, July;53(1):55-63). In brief, rats are placed in a plastic cage with a wire mesh bottom and allowed to acclimate for 15-30 minutes, until cage exploration and grooming stops. The plantar surface of each hind paw is touched with a series of von Frey hairs with varying stiffness requiring a known force to buckle to determine the nociceptive threshold. Adult male Sprague Dawley rats (avg. wt. 300 g) were tested in the present study. After acclimation, baseline von Frey thresholds were assessed for the injured hindpaw at -15 min. All test compounds were delivered at 0 min by the intravenous (i.v.) route in a volume of 0.5-2 ml/kg. […] Animals were tested in one of the following 4 treatment conditions: […] Following drug administration, von Frey thresholds are measured at 15, 30, 60 and 90 min. Data were analyzed by a 2-way repeated measures analysis of variance followed by Dunnett's test (p<0.05). Experimenters were kept blind to the treatment condition of rats they tested. […] Specifically, drug effects can be described in terms Δ% MPE according to the following equation: {[…] under the curve for von Frey thresholds of the drug-treated group; AUCvehicle=area under the curve for von Frey thresholds in the vehicle group; Time=duration of post-drug testing period (90 min); and Max=maximum von Frey threshold (15 g).

mKCNQ2 channels = target: T1, mKCNQ2 channels (Mus musculus, UniProt Q9Z351); assay: Whole-cell patch-clamp, HEK 293 stable cell line expressing mKCNQ2 channels; format: cell-based; conditions: HEK 293 mKCNQ2, Hill fit; for EC50: @ −40 mV
T1 construct: expressed in transfected cells
T1 sequence (Q9Z351 whole entry): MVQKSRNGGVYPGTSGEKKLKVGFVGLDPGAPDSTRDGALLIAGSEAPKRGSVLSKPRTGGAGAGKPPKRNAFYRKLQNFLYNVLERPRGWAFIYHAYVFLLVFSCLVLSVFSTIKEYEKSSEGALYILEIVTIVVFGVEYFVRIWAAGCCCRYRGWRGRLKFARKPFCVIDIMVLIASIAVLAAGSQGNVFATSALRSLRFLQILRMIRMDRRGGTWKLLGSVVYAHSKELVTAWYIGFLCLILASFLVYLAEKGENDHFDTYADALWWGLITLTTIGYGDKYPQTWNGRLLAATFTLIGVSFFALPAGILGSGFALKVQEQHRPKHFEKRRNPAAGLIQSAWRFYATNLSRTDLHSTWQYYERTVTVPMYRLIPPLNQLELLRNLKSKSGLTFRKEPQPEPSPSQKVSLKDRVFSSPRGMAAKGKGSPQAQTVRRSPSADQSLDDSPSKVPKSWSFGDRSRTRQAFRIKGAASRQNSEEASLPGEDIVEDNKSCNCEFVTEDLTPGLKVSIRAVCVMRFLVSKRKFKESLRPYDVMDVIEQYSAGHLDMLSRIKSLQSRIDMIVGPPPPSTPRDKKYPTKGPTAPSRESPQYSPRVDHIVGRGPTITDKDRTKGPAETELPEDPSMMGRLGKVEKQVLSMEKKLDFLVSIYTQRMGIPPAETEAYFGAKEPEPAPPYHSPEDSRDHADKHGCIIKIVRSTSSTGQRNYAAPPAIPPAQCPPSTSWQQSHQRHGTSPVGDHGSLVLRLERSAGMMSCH
Experimental: Whole-cell patch-clamp recordings were made from an HEK 293 stable cell line expressing mKCNQ2 channels, maintained in culture for 1-2 days. Patch pipettes had initial resistances of 2.5-4 MΩ. Currents were recorded with an EPC-9 amplifier (HEKA, Lambrecht, Germany) controlled with software (Pulse, HEKA) run on a standard lab PC. Series resistance compensation was used during current recording, and set at 80%. The series resistance (R) and cell capacitance (C) were determined electronically by subtracting the capacitive currents at the onset and offset of a 5 mV voltage step. The cancellation of whole-cell capacitance transients was virtually complete in all cells. Analog current signals were low-pass filtered at 2.9 kHz using a four-pole Bessel filter −3 dB) and stored on a local network server computer at a sampling rate of […]. All recordings were performed at room temperature (20-22° C.). The pipette solution contained (mM): KCl, 150; CaCl2, 2.5; EGTA, 5; MgCl2, 1; HEPES, 10; pH to 7.3 with KOH, and Osmolality of 290-300 mOsm. The extracellular solution contained (mM): NaCl, 140; KCl, 2.5; CaCl2, 2.5; MgCl2, 1; glucose, 10; HEPES, 10; pH to 7.3 with NaOH, and Osmolality of 305-310 mOsm
Concentration response data were generated by measuring the difference in the steady-state amplitude of current in the presence of compound at the end of a 600 ms voltage-clamp step from a holding potential of −80 mV. The concentration-response data were fitted with Hill-type equations: […]
where I is the steady-state current at a given concentration of agonist [A]; and Imax, EC50 and nH are parameters estimated from the curve fit. In some cases the concentration-response data were fitted with equations consisting of the sum of two Hill-type components. Current-voltage (I/V) relationships for agonist-evoked currents were obtained by performing 600 ms voltage steps (−110 mV to +40 mV) in the absence and presence of agonist.

[2] = target: cloned mouse KCNQ2 (mKCNQ2) (Mus musculus, UniProt Q9Z351); assay: KCNQ oocyte two-electrode voltage clamp, whole-cell outward current; format: cell-based; conditions: 10 μM; single holding potential (−40 μM [sic]); Xenopus oocytes
Chain of cloned mouse KCNQ2 (mKCNQ2) (Q9Z351 whole entry): as above
Experimental: The ability of compounds described in the present invention to open KCNQ channels and increase whole-cell outward (K^+) KCNQ-mediated currents was assessed under voltage-clamp conditions by determining their ability to increase cloned mouse KCNQ2 (mKCNQ2)-mediated, heteromultimeric KCNQ2/3 (mKCNQ2/hKCNQ3)-mediated, and human KCNQ5 (hKCNQ5)-mediated outward currents heterologously expressed in Xenopus oocytes. Oocytes were prepared and injected using standard techniques; each oocyte was injected with approximately 50 nl of mKCNQ2, or hKCNQ5 cRNA. In the case of mKCNQ2/h3 heteromultimeric channel expression, equal amounts (25-50 nL) of each cRNA were co-injected. […] Following injection, oocytes were maintained at 17° in ND96 medium consisting of (in mM): NaCl, 90; KCl, 1.0; CaCl2, 1.0; MgCl2, 1.0; HEPES, 5.0; pH 7.5. Horse serum (5%) and penicillin/streptomycin (5%) were added to the incubation medium. Recording commenced 2-6 days following mRNA injection. Prior to the start of an experiment oocytes were placed in a recording chamber and incubated in Modified Barth's Solution (MBS) consisting of (in mM): NaCl, 88; NaHCO3, 2.4; KCl, 1.0; HEPES, 10; MgSO4, 0.82; Ca(NO3)2, 0.33; CaCl2, 0.41; pH 7.5.
Oocytes were impaled with electrodes (1-2 MΩ) and standard 2-electrode voltage clamp techniques were employed to record whole-cell membrane currents. Recordings were accomplished using standard two-electrode voltage clamp techniques [Stuhmer, W., et al., Methods in Enzymology, Vol. 207: 319-339 (1992)]. Voltage-clamp protocols typically consisted of a series of voltage steps 1-5 sec duration, in +10 mV steps from a holding potential of −90 mV to a maximal potential of +40 mV; records were digitized at 5 kHz and stored on a computer using pClamp data acquisition and analysis software (Axon Instruments). Compounds were evaluated at a single concentration and at a single holding potential (−40 μM); the effect of the selected compounds of Formula I on KCNQ2 current was expressed as the percent of control current and is listed in Table I.

| Structure (SMILES) | AUC (Δ% MPE) [1] | EC50 (mKCNQ2 channels) [µM] | Emax (mKCNQ2 channels; HEK293, read-out: Imax (%)) [%] | activity at 10 µM [2] [%] |
| --- | --- | --- | --- | --- |
| C[C@H](NC(=O)/C=C/c1ccc(F)cc1)c1ccc(F)c(N2CCOCC2)c1 [Example 169, (S)-N-[1-(4-Fluoro-3-morpholin-4-yl-phenyl)-ethyl]-3-(4-fluoro-phenyl)-acrylamide] | 12 (10 mg/kg, i.v.) Δ% MPE | 1 |  |  |
| C[C@H](NC(=O)/C=C/c1ccc(F)cc1)c1ccc2ccccc2c1 [Example 1, (S)-3-(4-Fluoro-phenyl)-N-(1-naphthalen-2-yl-ethyl)acrylamide] |  | 9.2 | 237 |  |
| C[C@H](NC(=O)/C=C/c1ccccc1)c1cccc(N2CCOCC2)c1 [Example 82, (S)-3-Phenyl-N-[1-(3-morpholin-4-yl-phenyl)ethyl]acrylamide] | 23 (10 mg/kg, i.v.) Δ% MPE |  |  | 197 |
